Source: patent US6969697B2, “Substituted benzoylcyclohexenones” (Bayer Aktiengesellschaft, priority 2000, dated 2005)

Assays:
maize [1] = assay: Post-emergence test (Example B), crop plant tolerance, maize; type: in vivo; conditions: rated after three weeks
Experimental: (§1) • Solvent: 5 parts by weight of acetone • Emulsifier: 1 part by weight of alkilaryl polyglycol ether
(§2) To produce a suitable preparation of active compound, 1 part by weight of active compound is mixed with the stated amount of solvent, the stated amount of emulsifier is added and the concentrate is diluted with water to the desired concentration.
(§3) Test plants of a height of 5-15 cm are sprayed with the preparation of active compound such that the particular amounts of active compound desired are applied per unit area. The concentration of the spray liquor is chosen such that the particular amounts of active compound desired are applied in 1000 l of water/ha.
(§4) After three weeks, the degree of damage to the plants is rated in % damage in comparison to the development of the untreated control.
(§5) The figures denote: • 0%=no effect (like untreated control) • 100%=total destruction

weeds [2] = assay: Post-emergence test (Example B), herbicidal activity; type: in vivo; conditions: test plants 5-15 cm sprayed, rated after three weeks
Experimental: as §1, §2, §3, §4, §5

wheat = assay: Post-emergence test (Example B), crop plant tolerance, wheat; type: in vivo; conditions: rated after three weeks
Experimental: as §1, §2, §3, §4, §5

[3] = logP by reversed-phase HPLC (EEC Directive 79/831 Annex V.A8), acidic range; type: physicochemical; conditions: reversed-phase column (C 18), 43° C.; a) acidic range: 0.1% aqueous phosphoric acid, acetonitrile, linear gradient 10% to 90%
Experimental: The logP values given in Table 1 were determined in accordance with EEC Directive 79/831 Annex V.A8 by HPLC (High Performance Liquid Chromatography) using a reversed-phase column (C 18). Temperature: 43° C. • (a) Mobile phases for the determination in the acidic range: 0.1% aqueous phosphoric acid, acetonitrile; linear gradient from 10% acetonitrile to 90% acetonitrile—the corresponding data are labelled ^a) in Table 1. • (b) Mobile phases for the determination in the neutral range: 0.01 molar aqueous phosphate buffer solution, acetonitrile; linear gradient from 10% acetonitrile to 90% acetonitrile—corresponding data are labelled ^b) in Table 1.
Calibration was carried out using unbranched alkan-2-ones (having 3 to 16 carbon atoms), with known logP values (determination of the logP values by the retention times using linear interpolation between two successive alkanones).

maize [4] = assay: Pre-emergence test (Example A), crop plant tolerance; type: in vivo; conditions: rated after three weeks
Experimental: as §1, §2
(§6) Seeds of the test plants are sown in normal soil. After 24 hours, the soil is sprayed with the preparation of active compound such that the particular amount of active compound desired is applied per unit area. The concentration of active compound in the spray liquor is chosen such that the particular amount of active compound desired is applied in 1000 litres of water per hectare.
(§7) After three weeks, the degree of damage to the plants is rated in % damage in comparison to the development of the untreated control. The figures denote: • 0%=no effect (like untreated control) • 100%=total destruction

weeds [5] = assay: Pre-emergence test (Example A), herbicidal activity; type: in vivo; conditions: soil sprayed 24 hours after sowing, rated after three weeks
Experimental: as §1, §2, §6, §7

CN1CCCN(Cc2c(Cl)ccc(C(=O)C3=C(Sc4ccccc4)CCCC3=O)c2Cl)C1=O [Example 1, 1-[2,6-dichloro-3-[(6-oxo-2-phenylthio-1-cyclohexen-1-yl)-carbonyl]-benzyl]-3-methyl-tetrahydro-2(1H)-pyrimidinone]
melting point: 140 °C | tolerance by crop plants (maize [1]): tolerated well | activity against weeds (degree of damage) (weeds [2]): strong activity against weeds | tolerance by crop plants (wheat): tolerated well

CN1CCN(Cc2c(Cl)ccc(C(=O)C3=C(Sc4ccccc4)CCCC3=O)c2Cl)C1=O [Example 2]
tolerance by crop plants (maize [1]): tolerated well | activity against weeds (degree of damage) (weeds [2]): strong activity against weeds | logP [3]: logP = 3.02^a) | tolerance by crop plants (wheat): tolerated well

CCN1CCN(Cc2c(Cl)ccc(C(=O)C3=C(Sc4ccccc4)CCCC3=O)c2Cl)C1=O [Example 3]
logP [3]: logP = 3.30^a)

CSc1nn(Cc2c(Cl)ccc(C(=O)C3=C(Sc4ccccc4)CCCC3=O)c2Cl)c(=O)n1C [Example 4]
logP [3]: logP = 3.29^a)

O=C1CCCC(Sc2ccccc2)=C1C(=O)c1ccc(Cl)c(Cn2nc(C3CC3)n(C3CC3)c2=O)c1Cl [Example 5]
tolerance by crop plants (maize [1]): tolerated well | activity against weeds (degree of damage) (weeds [2]): strong activity against weeds | logP [3]: logP = 3.50^a) | tolerance by crop plants (wheat): tolerated well

CSc1nn(Cc2c(S(C)(=O)=O)ccc(C(=O)C3=C(Sc4ccccc4)CCCC3=O)c2Cl)c(=O)n1C [Example 6]
logP [3]: logP = 2.84^a)

COc1nn(Cc2c(S(C)(=O)=O)ccc(C(=O)C3=C(Sc4ccccc4)CCCC3=O)c2Cl)c(=O)n1C [Example 7]
logP [3]: logP = 2.67^a)

CN1CCN(Cc2c(S(C)(=O)=O)ccc(C(=O)C3=C(Sc4ccccc4)CCCC3=O)c2Cl)C1=O [Example 8]
logP [3]: logP = 2.56^a)

CCN1CCN(Cc2c(S(C)(=O)=O)ccc(C(=O)C3=C(Sc4ccccc4)CCCC3=O)c2Cl)C1=O [Example 9]
logP [3]: logP = 2.79^a)

CCOn1c(CC)nn(Cc2c(S(C)(=O)=O)ccc(C(=O)C3=C(Sc4ccccc4)CCCC3=O)c2Cl)c1=O [Example 10]
logP [3]: logP = 3.13^a)

COc1nn(Cc2c(Cl)ccc(C(=O)C3=C(Sc4ccccc4)CCCC3=O)c2Cl)c(=O)n1C [Example 11]
logP [3]: logP = 3.06^a)

CC(C)Oc1nn(Cc2c(Cl)ccc(C(=O)C3=C(Sc4ccccc4)CCCC3=O)c2Cl)c(=O)n1C [Example 12]
logP [3]: logP = 3.69^a)

CN(C)c1nn(Cc2c(Cl)ccc(C(=O)C3=C(Sc4ccccc4)CCCC3=O)c2Cl)c(=O)n1C [Example 13]
logP [3]: logP = 3.10^a)

COc1nn(Cc2c(Cl)ccc(C(=O)C3=C(S(=O)(=O)c4ccccc4)CCCC3=O)c2Cl)c(=O)n1C [Example 14]
logP [3]: logP = 2.62^a)

CSc1nn(Cc2cc(C(F)(F)F)ccc2C(=O)C2=C(Sc3ccccc3)CCCC2=O)c(=O)n1C [Example 16]
tolerance by crop plants (maize [1]): tolerated well | activity against weeds (degree of damage) (weeds [2]): strong activity against weeds | tolerance by crop plants (maize [4]): tolerated well | logP [3]: logP = 3.58^a) | tolerance by crop plants (wheat): tolerated well | activity against weeds (degree of damage) (weeds [5]): strong activity against weeds

CSC1=C(C(=O)c2ccc(C(F)(F)F)cc2Cn2nc(SC)n(C)c2=O)C(=O)CCC1 [Example 17]
tolerance by crop plants (maize [1]): tolerated well | activity against weeds (degree of damage) (weeds [2]): strong activity against weeds | logP [3]: logP = 2.63^a) | tolerance by crop plants (wheat): tolerated well

COc1nn(Cc2cc(C(F)(F)F)ccc2C(=O)C2=C(Sc3ccccc3)CCCC2=O)c(=O)n1C [Example 18]
tolerance by crop plants (maize [1]): tolerated well | activity against weeds (degree of damage) (weeds [2]): strong activity against weeds | logP [3]: logP = 3.30^a) | tolerance by crop plants (wheat): tolerated well

COc1nn(Cc2cc(C(F)(F)F)ccc2C(=O)C2=C(SC)CCCC2=O)c(=O)n1C [Example 19]
tolerance by crop plants (maize [1]): tolerated well | activity against weeds (degree of damage) (weeds [2]): strong activity against weeds | logP [3]: logP = 2.41^a) | tolerance by crop plants (wheat): tolerated well

CCCCN1CCN(Cc2c(Cl)ccc(C(=O)C3=C(Sc4ccccc4)CCCC3=O)c2Cl)C1=O [Example 120]
logP [3]: logP = 4.02^a)

CC(C)CN1CCN(Cc2c(Cl)ccc(C(=O)C3=C(Sc4ccccc4)CCCC3=O)c2Cl)C1=O [Example 121]
logP [3]: logP = 3.98^a)
